Measured values published in ChEMBL document CHEMBL1201862, “PubChem BioAssay data set” (2004).
Calls of active or inactive are those of the source.

Legend:
[1] = molecular target: T1, Protein skinhead-1 (Caenorhabditis elegans, UniProt P34707); format: functional
T1 sequence (P34707 whole entry): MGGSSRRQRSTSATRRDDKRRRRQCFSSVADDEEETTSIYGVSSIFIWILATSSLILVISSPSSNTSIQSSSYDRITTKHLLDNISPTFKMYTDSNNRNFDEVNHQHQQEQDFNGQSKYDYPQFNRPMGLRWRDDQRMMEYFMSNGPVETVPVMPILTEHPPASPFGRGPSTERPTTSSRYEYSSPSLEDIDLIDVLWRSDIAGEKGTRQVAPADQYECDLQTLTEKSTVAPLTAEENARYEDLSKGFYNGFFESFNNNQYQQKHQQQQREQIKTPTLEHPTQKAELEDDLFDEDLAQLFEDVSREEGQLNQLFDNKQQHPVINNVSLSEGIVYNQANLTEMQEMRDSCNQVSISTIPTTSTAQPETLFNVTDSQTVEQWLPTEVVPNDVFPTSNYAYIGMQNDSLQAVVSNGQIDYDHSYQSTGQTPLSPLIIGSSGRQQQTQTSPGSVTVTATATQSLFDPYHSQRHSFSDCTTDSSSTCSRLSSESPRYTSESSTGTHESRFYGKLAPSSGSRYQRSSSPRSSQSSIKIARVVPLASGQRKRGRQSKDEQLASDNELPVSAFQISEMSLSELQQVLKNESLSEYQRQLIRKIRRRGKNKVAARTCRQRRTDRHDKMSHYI

[2] = molecular target: T2, Corticotropin-releasing factor receptor 2/Corticotropin-releasing factor-binding protein (Homo sapiens, UniProt P24387+Q13324); experiment: Dose Response confirmation of uHTS hits for small molecule antagonists of the CRF-binding protein and CRF-R2 receptor complex.; format: functional; conditions: read-out: IC50_Mean
T2 sequence (Q13324 whole entry): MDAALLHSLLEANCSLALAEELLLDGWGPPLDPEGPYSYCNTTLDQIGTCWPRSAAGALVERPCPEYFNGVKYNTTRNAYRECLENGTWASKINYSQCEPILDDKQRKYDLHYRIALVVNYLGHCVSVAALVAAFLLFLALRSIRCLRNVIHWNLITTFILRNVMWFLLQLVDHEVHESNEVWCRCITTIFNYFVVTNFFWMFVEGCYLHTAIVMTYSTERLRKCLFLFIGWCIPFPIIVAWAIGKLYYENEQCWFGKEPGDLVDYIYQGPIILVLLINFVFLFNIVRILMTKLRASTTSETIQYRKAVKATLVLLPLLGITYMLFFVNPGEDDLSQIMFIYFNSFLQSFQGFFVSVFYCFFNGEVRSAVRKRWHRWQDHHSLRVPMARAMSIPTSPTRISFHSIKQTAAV
T2 sequence (P24387 whole entry): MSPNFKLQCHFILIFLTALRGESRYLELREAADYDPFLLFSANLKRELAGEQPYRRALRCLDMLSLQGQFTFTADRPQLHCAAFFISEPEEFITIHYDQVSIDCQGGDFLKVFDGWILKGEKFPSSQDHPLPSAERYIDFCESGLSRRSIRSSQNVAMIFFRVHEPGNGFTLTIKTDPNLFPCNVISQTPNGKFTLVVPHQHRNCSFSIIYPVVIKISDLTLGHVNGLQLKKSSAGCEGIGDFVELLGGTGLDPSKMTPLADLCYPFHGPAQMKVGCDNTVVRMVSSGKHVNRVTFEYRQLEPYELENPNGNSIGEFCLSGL

[3] = molecular target: T2, Corticotropin-releasing factor receptor 2/Corticotropin-releasing factor-binding protein; experiment: activators of CRF receptor 2 with binding protein – uHTS hits, confirmation (AID 602473); format: functional; conditions: read-out: EC50_Mean
[4] = viability of HCT116 lacking mutant beta-catenin – cell-based, human colon tumor, dose response (AID 1045); format: functional;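 note: HCT116 colon tumor cells with beta catenin knocked out; cells exposed to compound for 60 hours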
[5] = viability of PTEN-deleted HCT116 cells – cell-based, HCT116 PTEN knockout, dose response (AID 1047); format: functional;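 note: HCT116 colon tumor cells with PTEN knocked out; cells exposed to compound for 60 hours before readout; potency for loss of cell viability measured by luminescence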
[6] = molecular target: Cytochrome P450 2D6 (Homo sapiens, UniProt P10635);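 note: CYP2D6 member of a cytochrome P450 panel assay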
Cytochrome P450 2D6, sequence (P10635 whole entry): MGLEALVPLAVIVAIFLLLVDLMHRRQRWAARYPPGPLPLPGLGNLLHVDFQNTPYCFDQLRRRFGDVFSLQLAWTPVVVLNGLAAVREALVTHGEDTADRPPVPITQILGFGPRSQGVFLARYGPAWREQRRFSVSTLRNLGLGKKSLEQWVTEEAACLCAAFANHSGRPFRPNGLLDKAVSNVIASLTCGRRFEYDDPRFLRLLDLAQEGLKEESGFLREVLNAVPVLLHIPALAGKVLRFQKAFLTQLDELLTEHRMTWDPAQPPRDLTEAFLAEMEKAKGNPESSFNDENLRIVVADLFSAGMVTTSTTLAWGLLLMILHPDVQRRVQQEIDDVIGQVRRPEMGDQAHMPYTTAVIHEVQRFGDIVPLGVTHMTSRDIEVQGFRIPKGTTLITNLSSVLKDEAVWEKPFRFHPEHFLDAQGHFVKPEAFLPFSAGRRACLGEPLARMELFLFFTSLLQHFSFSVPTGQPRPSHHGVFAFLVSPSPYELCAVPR

[7] = Trypanosoma cruzi growth suppression in host cells – NIH3T3 host cells, beta-gal luminescence, confirmation (AID 2044); format: functional, cell-based;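 note: intracellular parasites grown in NIH/3T3 mouse fibroblasts as host cells; luminescent beta-galactosidase reporter signal from transgenic T. cruzi replicating inside host cells; inhibitors lower the luminescence signal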
[8] = NIH3T3 cell viability loss – ATP luminescence, mouse fibroblasts, counter-screen, dose response (AID 2010); format: functional, cell-based;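 note: cells exposed to compound for about 90 hours before reading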
[9] = molecular target: Luciferin 4-monooxygenase (Photinus pyralis, UniProt P08659); experiment: inhibition of purified Photinus pyralis luciferase – biochemical, luminescence, dose response (AID 1891)
Luciferin 4-monooxygenase, sequence (P08659 whole entry): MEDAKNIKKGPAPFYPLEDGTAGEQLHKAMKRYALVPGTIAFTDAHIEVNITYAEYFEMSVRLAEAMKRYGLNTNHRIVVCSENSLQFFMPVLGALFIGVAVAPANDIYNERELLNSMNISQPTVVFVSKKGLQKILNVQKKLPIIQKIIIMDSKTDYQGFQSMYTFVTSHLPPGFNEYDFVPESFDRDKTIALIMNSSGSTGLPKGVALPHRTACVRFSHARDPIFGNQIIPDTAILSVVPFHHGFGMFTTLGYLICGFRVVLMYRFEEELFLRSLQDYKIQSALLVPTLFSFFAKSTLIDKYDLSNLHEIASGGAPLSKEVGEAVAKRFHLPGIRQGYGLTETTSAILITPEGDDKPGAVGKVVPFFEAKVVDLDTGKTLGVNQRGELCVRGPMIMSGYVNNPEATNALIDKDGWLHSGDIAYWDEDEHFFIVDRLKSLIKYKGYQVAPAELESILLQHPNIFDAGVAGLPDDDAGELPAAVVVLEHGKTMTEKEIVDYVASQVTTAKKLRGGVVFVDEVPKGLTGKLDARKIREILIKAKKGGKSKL

[10] = molecular target: T3, Heat shock factor protein 1 (Mus musculus, UniProt P38532); experiment: enhancement of HSF1-driven luciferase signal – cell-based, NIH3T3, luminescence, dose retest, confirmation (AID 435004); format: functional;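 note: stress induced by proteasome inhibitor MG132 added 30 min after compound; luciferase reporter driven by HSF1 response element in NIH3T3 cells; actives raise luminescence as potentiators of the MG132 stress response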
T3 sequence (P38532 whole entry): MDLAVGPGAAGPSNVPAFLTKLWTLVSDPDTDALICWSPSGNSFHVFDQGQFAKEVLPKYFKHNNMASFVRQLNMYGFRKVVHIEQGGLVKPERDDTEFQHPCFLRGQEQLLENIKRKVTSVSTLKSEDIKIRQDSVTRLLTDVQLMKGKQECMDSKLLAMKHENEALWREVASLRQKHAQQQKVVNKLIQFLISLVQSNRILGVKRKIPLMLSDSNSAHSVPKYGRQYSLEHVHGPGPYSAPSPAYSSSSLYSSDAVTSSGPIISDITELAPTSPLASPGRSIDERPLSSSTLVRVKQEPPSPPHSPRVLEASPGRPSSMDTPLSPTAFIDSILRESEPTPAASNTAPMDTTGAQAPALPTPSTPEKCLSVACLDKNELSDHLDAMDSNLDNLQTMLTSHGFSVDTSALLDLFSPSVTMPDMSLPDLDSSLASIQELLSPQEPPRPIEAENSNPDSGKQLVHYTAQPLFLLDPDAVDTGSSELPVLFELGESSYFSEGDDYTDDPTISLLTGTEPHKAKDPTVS

[11] = Luminescence Cell-Based Dose Confirmation HTS to Identify Inhibitors of Platelet Dense Granule Release. [Related pubchem assays: 1663 (Primary HTS), 1678 (Summary of Project)]; format: functional
[12] = Luminescence Cell-Based Dose Retest to Confirm Inhibitors of Cancer Stem Cells. [Related pubchem assays (depositor defined):AID2717, AID2721]; format: functional; conditions: Homo sapiens
[13] = test system: Streptococcus; experiment: GAS UMAA2166 growth inhibition – luminescence, BacTiterGlo, counter-screen for streptokinase expression inhibitor project, dose response (AID 1915); format: functional, organism-based;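 note: potency for reduction of bacterial viability or growth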
[14] = molecular target: T4, Streptokinase A (Streptococcus pyogenes serotype M1, UniProt P10520); experiment: viability-normalized secreted streptokinase activity reduction – plasminogen activation absorbance, OD405, dose response (AID 1914); format: functional, Streptococcus pyogenes M1 GAS;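 note: secreted streptokinase activity via plasminogen activation per viability signal from cell pellet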
T4 sequence (P10520 whole entry): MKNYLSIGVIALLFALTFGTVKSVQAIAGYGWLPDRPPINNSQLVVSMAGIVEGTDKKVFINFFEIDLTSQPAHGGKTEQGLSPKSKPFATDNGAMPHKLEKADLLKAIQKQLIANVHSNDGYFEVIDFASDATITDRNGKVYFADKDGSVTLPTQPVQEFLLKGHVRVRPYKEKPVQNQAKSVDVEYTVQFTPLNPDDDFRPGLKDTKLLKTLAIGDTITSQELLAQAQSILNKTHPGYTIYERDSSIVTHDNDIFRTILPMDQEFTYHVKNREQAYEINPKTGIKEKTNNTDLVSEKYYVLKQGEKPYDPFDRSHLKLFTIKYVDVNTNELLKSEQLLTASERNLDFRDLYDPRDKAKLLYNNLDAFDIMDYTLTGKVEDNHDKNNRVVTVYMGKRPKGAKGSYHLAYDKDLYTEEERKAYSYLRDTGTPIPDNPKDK

[15] = test system: Streptococcus sp. 'group A'; experiment: Streptococcus pyogenes SK(-)GAS viability under kanamycin – luminescence, BacTiterGlo, confirmation, counter-screen for streptokinase expression inhibitor project, dose response (AID 1900); format: functional, organism-based
[16] = HIV-1 AD8 envelope cell-cell fusion blockers – cherry-pick, dose response (AID 652062); format: functional, cell-based;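 note: luciferase signal from cell-cell fusion driven by HIV-1 clade B AD8 Env; potency is for inhibitors of fusion seen as a drop in luminescence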
[17] = blockers of HIV-1 envelope-mediated cell-cell fusion – cherry-pick, dose response (AID 652057); format: functional, cell-based

Structure (SMILES): FC(F)(F)c1cccc(-c2nc(-c3ccncc3)no2)c1
- IC50 [1]: > 100 µM (inactive)

Structure (SMILES): O=C(CCc1nnc2ccc(NCc3ccco3)nn12)N1CCN(c2ccccc2F)CC1
- IC50 [2]: > 47.1 µM (inactive)
- EC50 [3]: > 53 µM (inactive)

Structure (SMILES): COc1ccc(-c2c3c(nc4sc5c(Cl)nc(C)nc5c24)CCC3)cc1
- EC50 [4]: 1.59 µM (active)
- EC50 [5]: 4.46 µM (active)

Structure (SMILES): CCOc1ccc(NC(=O)C2CCCN(S(=O)(=O)c3c(C)nn(C)c3C)C2)cc1 (configuration not stated)
- IC50 [1]: > 100 µM (inactive)

Structure (SMILES): Cc1ccc(C(=O)/C=C/c2ccc(Br)cc2)o1
- EC50 [4]: 6.62 µM (active)
- EC50 [5]: 8.44 µM (active)

Structure (SMILES): COc1ccc(CN2CCCC(C(=O)c3cccc(Cl)c3)C2)cc1 (configuration not stated)
- IC50 [1]: > 100 µM (inactive)

Structure (SMILES): Cc1ccc(CCNC(=O)c2coc3nc4ccccc4nc23)cc1
- IC50 [1]: > 100 µM (inactive)

Structure (SMILES): COc1cnc(SCc2ccc(Cl)cc2)nc1Cl
- AC50 [6]: 17.8 µM (inconclusive)

Structure (SMILES): O=C(c1ccc(COc2ccc(F)cc2)o1)n1cccn1
- AC50 [6]: 0.00562 µM (inconclusive)

Structure (SMILES): N#CCC(=O)Nc1ccc(C(=O)OCC(=O)NNC(=O)c2cccs2)cc1
- IC50 [2]: > 47.1 µM (inactive)
- EC50 [3]: > 53 µM (inactive)

Structure (SMILES): COCCN1C(=O)CC(NNC(=O)c2ccc(S(=O)(=O)N3CCCC3)cc2)C1=O (configuration not stated)
- IC50 [1]: > 100 µM (inactive)

Structure (SMILES): Cc1ccc(NS(=O)(=O)c2cccc3nsnc23)cc1
- IC50 [2]: > 47.1 µM (inactive)
- EC50 [3]: > 53 µM (inactive)

Structure (SMILES): CC(C)CC1CC(=O)OC1(C)C(=O)CSc1nc2ccccc2s1 (configuration not stated)
- AC50 [6]: 3.55 µM (inconclusive)

Structure (SMILES): COc1ccc(S(=O)(=O)N(c2onc(C)c2Cl)S(=O)(=O)c2ccc(OC)cc2)cc1
- IC50 [2]: > 47.1 µM (inactive)
- EC50 [3]: > 53 µM (inactive)

Structure (SMILES): CCOC(=O)c1c(NC(=O)c2cc3n(n2)C(C(F)(F)F)CC(c2cccs2)N3)sc(C)c1C (configuration not stated)
- EC50 [4]: 2.59 µM (active)
- EC50 [5]: 2.45 µM (active)

Structure (SMILES): Cc1cccc2cc(C#N)c(N3CCCC3)nc12
- IC50 [1]: > 100 µM (inactive)

Structure (SMILES): COc1ccc(Cl)cc1C(=O)Nc1ccccc1N1CCCCC1
- IC50 [1]: > 100 µM (inactive)

Structure (SMILES): Cc1cccc(N(CC(O)CON=C2c3ccccc3-c3ccccc32)S(C)(=O)=O)c1 (configuration not stated)
- EC50 [7]: 3.22 µM (active)
- EC50 [4]: 29.6 µM (active)
- EC50 [5]: 28.8 µM (active)
- EC50 [8]: > 60 µM (not active)

Structure (SMILES): O=C(Nc1nc2ccc(Cl)cc2s1)c1ccc(N2CCCCC2)c([N+](=O)[O-])c1
- EC50 [4]: 13.5 µM (active)
- EC50 [5]: 12.2 µM (active)

Structure (SMILES): CN1CCC(N(C)CC(=O)Nc2ccccc2N2CCOCC2)CC1
- IC50 [1]: > 100 µM (inactive)

Structure (SMILES): Cc1ccc(-c2nc(CSCC(=O)N3CCN(c4ccccn4)CC3)c(C)o2)cc1
- EC50 [4]: 17.1 µM (active)
- EC50 [5]: 35 µM (active)

Structure (SMILES): OC(CNCc1cccc(Cl)c1)c1ccccc1 (configuration not stated)
- EC50 [9]: > 112 µM (not active)
- EC50 [10]: > 260 µM (inactive)
- EC50 [11]: 21.2 µM (active)

Structure (SMILES): CCc1cc2cc(C)cc(C)c2nc1SCC(=O)N1CCN(C(=O)c2ccco2)CC1
- IC50 [2]: > 47.1 µM (inactive)
- EC50 [3]: > 53 µM (inactive)
- AC50 [12]: 12.8 µM (active)

Structure (SMILES): CCSc1nnc(-c2ccc(Cl)cc2Cl)o1
- IC50 [1]: 29.7 µM (active)

Structure (SMILES): FC(F)(F)C1=CC(c2ccc(Cl)cc2)=NCCN1
- IC50 [1]: > 100 µM (inactive)

Structure (SMILES): c1ccc(-c2noc(CN3CCN(c4cnccn4)CC3)n2)cc1
- IC50 [2]: > 47.1 µM (inactive)
- EC50 [3]: > 53 µM (inactive)

Structure (SMILES): O=[N+]([O-])c1cccc(COc2ccc(CN3CCOCC3)cc2)c1
- IC50 [2]: > 47.1 µM (inactive)
- EC50 [3]: > 53 µM (inactive)

Structure (SMILES): CN(/N=C/c1ccc(Cl)cc1Cl)c1ncc(Cl)cc1C(F)(F)F
- EC50 [13]: > 150 µM (not active)
- IC50 [2]: > 47.1 µM (inactive)
- EC50 [3]: > 53 µM (inactive)
- EC50 [14]: 21.2 µM (active)
- EC50 [15]: 16.9 µM (active)

Structure (SMILES): CCNC(=O)C[C@H]1CC[C@@H]2[C@@H](COc3ccc(NC(=O)Nc4cccc(OC)c4)cc3C(=O)N2C)O1
- AC50 [16]: 50.2 µM (active)
- AC50 [17]: 37.7 µM (active)

Structure (SMILES): C[C@H]1CN([C@@H](C)CO)C(=O)c2ccccc2-c2ccccc2CO[C@H]1CN(C)Cc1cccc(F)c1
- AC50 [16]: 0.416 µM (active)
- AC50 [17]: < 0.26 µM (active)

Structure (SMILES): COc1cc(C[C@H](C)[C@H](C)Cc2ccc3c(c2)OCO3)ccc1O [AUSTROBAILIGNAN 6]
- IC50 [2]: > 47.1 µM (inactive)
- EC50 [3]: > 53 µM (inactive)
- AC50 [12]: 5.23 µM (active)
